According to ChEMBL document CHEMBL3739329, “Synthesis and biological evaluation of nitric oxide-releasing hybrids from gemcitabine and phenylsulfonyl furoxans as anti-tumor agents” (Medchemcomm, 2015):
Active and inactive are the calls of the source. No cut-off for these calls is given here.

Assays:
[1] = Cytotoxicity against human SGC7901 cells assessed as inhibition of cell proliferation after 48 hrs by MTT assay; assay type: functional, cell-based; conditions: SGC-7901, 48 h
HepG2 [2] = experiment: Cytotoxicity against human HepG2 cells assessed as inhibition of cell proliferation after 48 hrs by MTT assay; assay type: functional, cell-based; conditions: HepG2, 48 h
[3] = Cytotoxicity against human HCT116 cells assessed as inhibition of cell proliferation after 48 hrs by MTT assay; assay type: functional, cell-based; conditions: HCT-116, 48 h
[4] = Cytotoxicity against human SW620 cells assessed as inhibition of cell proliferation after 48 hrs by MTT assay; assay type: functional, cell-based; conditions: SW-620, 48 h
A549 = experiment: Cytotoxicity against human A549 cells assessed as inhibition of cell proliferation after 48 hrs by MTT assay; assay type: functional, cell-based; conditions: A549, 48 h
HepG2 [5] = experiment: Induction of NO production in human HepG2 cells at 100 uM incubated for 24 hrs by Griess assay; assay type: functional, cell-based
HCT-116 [6] = experiment: Induction of NO production in human HCT116 cells at 100 uM incubated for 24 hrs by Griess assay; assay type: functional, cell-based
SW-620 [7] = experiment: Induction of nitrite/nitrate production in human SW620 cells at 100 uM incubated for 24 hrs by Griess assay; assay type: functional, cell-based
HepG2 [8] = experiment: Induction of nitric oxide release in human HepG2 cells at 6 uM incubated for 24 hrs by DAF-FM DA staining-based flow cytometric analysis; assay type: functional, cell-based
SW-620 [9] = experiment: Induction of nitric oxide release in human SW620 cells at 6 uM incubated for 24 hrs by DAF-FM DA staining-based flow cytometric analysis; assay type: functional, cell-based
HCT-116 [10] = experiment: Induction of nitric oxide release in human HCT116 cells at 6 uM incubated for 24 hrs by DAF-FM DA staining-based flow cytometric analysis; assay type: functional, cell-based
[11] = Cytotoxicity against human LO2 cells assessed as inhibition of cell proliferation after 48 hrs by MTT assay; assay type: cell-based; conditions: l02, 48 h
HepG2 [12] = experiment: Cytotoxicity against human HepG2 cells assessed as inhibition of cell proliferation at 0.5 to 50 uM after 48 hrs in presence of dipyridamole by MTT assay; assay type: functional, cell-based
HepG2 [13] = experiment: Induction of nitric oxide release in human HepG2 cells incubated for 24 hrs by DAF-FM DA staining-based flow cytometric analysis; assay type: functional, cell-based
HepG2 [14] = experiment: Cytotoxicity against human HepG2 cells assessed as inhibition of cell proliferation at 2 to 4 uM after 48 hrs in presence of haemoglobin; assay type: functional, cell-based
HepG2 [15] = experiment: Induction of apoptosis in human HepG2 cells at 2 uM incubated for 48 hrs by FITC-Annexin V/PI staining-based flow cytometric analysis; assay type: functional
HepG2 [16] = experiment: Induction of apoptosis in human HepG2 cells incubated for 48 hrs by FITC-Annexin V/PI staining-based flow cytometric analysis; assay type: functional, cell-based
HepG2 [17] = experiment: Induction of apoptosis in human HepG2 cells assessed as reduction in Bcl-2 protein level incubated for 48 hrs by Western blot analysis; assay type: functional, cell-based
HepG2 [18] = experiment: Induction of apoptosis in human HepG2 cells assessed as increase in Bax protein level incubated for 48 hrs by Western blot analysis; assay type: functional, cell-based
HepG2 [19] = experiment: Induction of apoptosis in human HepG2 cells assessed as increase in activated caspase-3 protein level at 0.5 to 2 uM incubated for 48 hrs by Western blot analysis; assay type: functional, cell-based
HepG2 [20] = experiment: Induction of apoptosis in human HepG2 cells assessed as reduction in PARP-1 protein level at 2 uM incubated for 48 hrs by Western blot analysis; assay type: functional, cell-based
HCT-116 [21] = experiment: Induction of nitric oxide release in human HCT116 cells incubated for 24 hrs by DAF-FM DA staining-based flow cytometric analysis; assay type: functional, cell-based
SW-620 [22] = experiment: Induction of nitric oxide release in human SW620 cells incubated for 24 hrs by DAF-FM DA staining-based flow cytometric analysis; assay type: functional, cell-based
HepG2 [23] = experiment: Induction of apoptosis in human HepG2 cells assessed as reduction in PARP-1 protein level at 0.5 to 2 uM incubated for 48 hrs by Western blot analysis; assay type: functional, cell-based

CN(CCOc1no[n+]([O-])c1S(=O)(=O)c1ccccc1)C(=O)CCC(=O)Nc1ccn([C@@H]2O[C@H](CO)[C@@H](O)C2(F)F)c(=O)n1
IC50 [1]: 5.85 µM
IC50 (HepG2 [2]): 8.39 µM
IC50 [3]: 10.8 µM
IC50 [4]: 5.21 µM
IC50 (A549): 10.1 µM

O=C(O)CCC(=O)OCC#CCOc1no[n+]([O-])c1S(=O)(=O)c1ccccc1
IC50 [1]: 11.5 µM
IC50 (HepG2 [2]): 8.73 µM
IC50 [3]: 9.86 µM
IC50 [4]: 9.09 µM
IC50 (A549): > 12.5 µM

O=C(CCC(=O)Nc1ccn([C@@H]2O[C@H](CO)[C@@H](O)C2(F)F)c(=O)n1)NCCCCCOc1no[n+]([O-])c1S(=O)(=O)c1ccccc1
IC50 [1]: 11.8 µM
IC50 (HepG2 [2]): 10.7 µM
IC50 [3]: > 12.5 µM
IC50 [4]: > 12.5 µM
IC50 (A549): > 12.5 µM

O=C(CCC(=O)Oc1ccc(CCOc2no[n+]([O-])c2S(=O)(=O)c2ccccc2)cc1)Nc1ccn([C@@H]2O[C@H](CO)[C@@H](O)C2(F)F)c(=O)n1
IC50 [1]: > 12.5 µM
IC50 (HepG2 [2]): 9.21 µM
IC50 [3]: 8.78 µM
IC50 [4]: > 12.5 µM
IC50 (A549): > 12.5 µM

O=C(CCC(=O)OCCCCCOc1no[n+]([O-])c1S(=O)(=O)c1ccccc1)Nc1ccn([C@@H]2O[C@H](CO)[C@@H](O)C2(F)F)c(=O)n1
IC50 [1]: 10.5 µM
IC50 (HepG2 [2]): > 12.5 µM
IC50 [3]: 11.3 µM
IC50 [4]: 9.67 µM
IC50 (A549): > 12.5 µM

O=C(CCC(=O)OCCCCOc1no[n+]([O-])c1S(=O)(=O)c1ccccc1)Nc1ccn([C@@H]2O[C@H](CO)[C@@H](O)C2(F)F)c(=O)n1
IC50 [1]: 6.13 µM
IC50 (HepG2 [2]): 2.44 µM
IC50 [3]: 3.57 µM
IC50 [4]: 2.49 µM
IC50 (A549): 5.18 µM
Activity (HepG2 [5]): Active
Activity (HCT-116 [6]): Active
Activity (SW-620 [7]): Active

CCOC(=O)N1CCN(/[N+]([O-])=N/Oc2ccc([N+](=O)[O-])cc2[N+](=O)[O-])CC1
IC50 (HepG2 [2]): 7.42 µM
IC50 [3]: 3.75 µM
IC50 [4]: 5.16 µM
Activity (HepG2 [8]): Active
Activity (SW-620 [9]): Active
Activity (HCT-116 [10]): Active

O=C(CCC(=O)OCCOCCOc1no[n+]([O-])c1S(=O)(=O)c1ccccc1)Nc1ccn([C@@H]2O[C@H](CO)[C@@H](O)C2(F)F)c(=O)n1
IC50 [1]: 10.7 µM
IC50 (HepG2 [2]): 7.05 µM
IC50 [3]: 7.86 µM
IC50 [4]: > 12.5 µM
IC50 (A549): 11.5 µM

O=C(CCC(=O)OCCOc1no[n+]([O-])c1S(=O)(=O)c1ccccc1)Nc1ccn([C@@H]2O[C@H](CO)[C@@H](O)C2(F)F)c(=O)n1
IC50 [1]: > 12.5 µM
IC50 (HepG2 [2]): > 12.5 µM
IC50 [3]: 10.3 µM
IC50 [4]: > 12.5 µM
IC50 (A549): > 12.5 µM

O=C(CCC(=O)OCC#CCOc1no[n+]([O-])c1S(=O)(=O)c1ccccc1)Nc1ccn([C@@H]2O[C@H](CO)[C@@H](O)C2(F)F)c(=O)n1
IC50 [1]: 1.36 µM
IC50 (HepG2 [2]): 1.02 µM
IC50 [3]: 1.19 µM
IC50 [4]: 1.3 µM
IC50 (A549): 3.27 µM
Activity [11]: Non-toxic
Activity (HepG2 [12]): Active
Activity (HepG2 [5]): Active
Activity (HCT-116 [6]): Active
Activity (SW-620 [7]): Active
Activity (HepG2 [13]): Dose-dependent effect
Activity (HepG2 [14]): inactive
Activity (HepG2 [15]): 78.3%
Activity (HepG2 [16]): Active
Activity (HepG2 [17]): Dose-dependent effect
Activity (HepG2 [18]): Dose-dependent effect
Activity (HepG2 [19]): Active
Activity (HepG2 [20]): Active
Activity (HCT-116 [21]): Dose-dependent effect
Activity (SW-620 [22]): Dose-dependent effect
Activity (HepG2 [23]): Active

O=C(CCC(=O)Nc1ccn([C@@H]2O[C@H](CO)[C@@H](O)C2(F)F)c(=O)n1)NCCCCOc1no[n+]([O-])c1S(=O)(=O)c1ccccc1
IC50 [1]: 5.1 µM
IC50 (HepG2 [2]): 3.22 µM
IC50 [3]: 3.06 µM
IC50 [4]: 4.35 µM
IC50 (A549): 6.04 µM
Activity (HepG2 [5]): Active
Activity (HCT-116 [6]): Active
Activity (SW-620 [7]): Active

O=C(CCC(=O)Nc1ccn([C@@H]2O[C@H](CO)[C@@H](O)C2(F)F)c(=O)n1)NCCCOc1no[n+]([O-])c1S(=O)(=O)c1ccccc1
IC50 [1]: 6.71 µM
IC50 (HepG2 [2]): 6.18 µM
IC50 [3]: 4.1 µM
IC50 [4]: 4.97 µM
IC50 (A549): 8.9 µM
Activity (HepG2 [5]): Active
Activity (HCT-116 [6]): Active
Activity (SW-620 [7]): Active

O=C(CCC(=O)Nc1ccn([C@@H]2O[C@H](CO)[C@@H](O)C2(F)F)c(=O)n1)NCCOc1no[n+]([O-])c1S(=O)(=O)c1ccccc1
IC50 [1]: 9.92 µM
IC50 (HepG2 [2]): 10.5 µM
IC50 [3]: > 12.5 µM
IC50 [4]: 9.16 µM
IC50 (A549): > 12.5 µM

Nc1ccn([C@@H]2O[C@H](CO)[C@@H](O)C2(F)F)c(=O)n1 [GEMCITABINE]
IC50 [1]: 3.58 µM
IC50 (HepG2 [2]): 2.97 µM
IC50 [3]: 7.33 µM
IC50 [4]: 5.62 µM
IC50 (A549): 2.69 µM
Activity (HepG2 [12]): inactive
Activity (HepG2 [5]): inactive
Activity (HCT-116 [6]): inactive
Activity (SW-620 [7]): inactive
Activity (HepG2 [15]): Active
Activity (HepG2 [20]): Active

CC(CCOC(=O)CCC(=O)Nc1ccn([C@@H]2O[C@H](CO)[C@@H](O)C2(F)F)c(=O)n1)Oc1no[n+]([O-])c1S(=O)(=O)c1ccccc1 (stereo partly drawn)
IC50 [1]: 7.44 µM
IC50 (HepG2 [2]): 3.25 µM
IC50 [3]: 4.69 µM
IC50 [4]: 3.98 µM
IC50 (A549): 7.82 µM
Activity (HepG2 [5]): Active
Activity (HCT-116 [6]): Active
Activity (SW-620 [7]): Active

O=C(CCC(=O)OCCCOc1no[n+]([O-])c1S(=O)(=O)c1ccccc1)Nc1ccn([C@@H]2O[C@H](CO)[C@@H](O)C2(F)F)c(=O)n1
IC50 [1]: 9.26 µM
IC50 (HepG2 [2]): 5.32 µM
IC50 [3]: 6.89 µM
IC50 [4]: 5 µM
IC50 (A549): 9.92 µM
Activity (HepG2 [5]): Active
Activity (HCT-116 [6]): Active
Activity (SW-620 [7]): Active
